Measured values: patent EP0876142B1, “TOPICAL DELIVERY OF DRUGS TO THE LOWER GASTROINTESTINAL TRACT” (Advanced Polymer Systems, Inc., priority 1996, dated 1997)

Test: In vitro release of hydrocortisone (modified USP dissolution apparatus)
Assay type: physicochemical
Conditions: after the first two hours
Description: The radioactively labelled hydrocortisone was entrapped in two steps using a 5% ethanolic solution at each step. Release of entrapped hydrocortisone at pH 7.5 was measured using a modified USP dissolution apparatus with a basket of 5 µm mesh and a stirring speed of 150 rpm. Sixty percent of the entrapped hydrocortisone was released in the first two hours with a further 15% released over the next six hours. The dissolution rate of free radioactively labelled hydrocortisone was also measured.

C[C@]12CCC(=O)C=C1CC[C@@H]1[C@@H]2[C@@H](O)C[C@@]2(C)[C@H]1CC[C@]2(O)C(=O)CO [free hydrocortisone, hydrocortisone]
total dissolution: total dissolution occurred in another six hours
